Columns and labels:
PSMA = PSMA (Homo sapiens, UniProt Q04609); settings: irreversible inhibitor; cited from earlier work
Aqueous solubility = type: physicochemical
c-Met = c-Met (Homo sapiens, UniProt P08581); test: c-Met inhibition IC50; type: biochemical; settings: read-out: c-Met inhibitory activity IC50
PC3-PIP PSMA (+) cells = test: CellTiter-Glo cell viability; type: cell-based, human; settings: 72 H, equivalent drug bases

Sequence of PSMA (Q04609 whole entry): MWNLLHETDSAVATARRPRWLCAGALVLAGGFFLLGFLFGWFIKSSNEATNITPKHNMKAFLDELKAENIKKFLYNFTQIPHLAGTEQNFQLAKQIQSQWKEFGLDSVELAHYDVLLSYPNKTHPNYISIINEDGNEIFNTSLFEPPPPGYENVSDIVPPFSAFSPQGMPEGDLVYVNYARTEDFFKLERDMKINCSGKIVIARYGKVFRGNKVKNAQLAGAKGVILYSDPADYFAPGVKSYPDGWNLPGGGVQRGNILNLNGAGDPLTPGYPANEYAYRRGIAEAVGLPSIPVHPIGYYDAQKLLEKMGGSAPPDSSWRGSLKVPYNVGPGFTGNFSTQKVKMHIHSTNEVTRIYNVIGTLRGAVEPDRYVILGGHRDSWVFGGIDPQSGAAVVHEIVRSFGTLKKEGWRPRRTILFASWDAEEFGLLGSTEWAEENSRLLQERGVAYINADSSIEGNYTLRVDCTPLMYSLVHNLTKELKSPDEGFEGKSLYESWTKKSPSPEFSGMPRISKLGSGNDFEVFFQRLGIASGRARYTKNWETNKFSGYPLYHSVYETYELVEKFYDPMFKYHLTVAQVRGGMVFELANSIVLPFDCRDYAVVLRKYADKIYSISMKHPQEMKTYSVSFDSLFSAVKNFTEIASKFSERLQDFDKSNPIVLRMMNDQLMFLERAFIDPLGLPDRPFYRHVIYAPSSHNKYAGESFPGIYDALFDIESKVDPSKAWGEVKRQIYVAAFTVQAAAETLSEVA
Sequence of c-Met (P08581 25-1390): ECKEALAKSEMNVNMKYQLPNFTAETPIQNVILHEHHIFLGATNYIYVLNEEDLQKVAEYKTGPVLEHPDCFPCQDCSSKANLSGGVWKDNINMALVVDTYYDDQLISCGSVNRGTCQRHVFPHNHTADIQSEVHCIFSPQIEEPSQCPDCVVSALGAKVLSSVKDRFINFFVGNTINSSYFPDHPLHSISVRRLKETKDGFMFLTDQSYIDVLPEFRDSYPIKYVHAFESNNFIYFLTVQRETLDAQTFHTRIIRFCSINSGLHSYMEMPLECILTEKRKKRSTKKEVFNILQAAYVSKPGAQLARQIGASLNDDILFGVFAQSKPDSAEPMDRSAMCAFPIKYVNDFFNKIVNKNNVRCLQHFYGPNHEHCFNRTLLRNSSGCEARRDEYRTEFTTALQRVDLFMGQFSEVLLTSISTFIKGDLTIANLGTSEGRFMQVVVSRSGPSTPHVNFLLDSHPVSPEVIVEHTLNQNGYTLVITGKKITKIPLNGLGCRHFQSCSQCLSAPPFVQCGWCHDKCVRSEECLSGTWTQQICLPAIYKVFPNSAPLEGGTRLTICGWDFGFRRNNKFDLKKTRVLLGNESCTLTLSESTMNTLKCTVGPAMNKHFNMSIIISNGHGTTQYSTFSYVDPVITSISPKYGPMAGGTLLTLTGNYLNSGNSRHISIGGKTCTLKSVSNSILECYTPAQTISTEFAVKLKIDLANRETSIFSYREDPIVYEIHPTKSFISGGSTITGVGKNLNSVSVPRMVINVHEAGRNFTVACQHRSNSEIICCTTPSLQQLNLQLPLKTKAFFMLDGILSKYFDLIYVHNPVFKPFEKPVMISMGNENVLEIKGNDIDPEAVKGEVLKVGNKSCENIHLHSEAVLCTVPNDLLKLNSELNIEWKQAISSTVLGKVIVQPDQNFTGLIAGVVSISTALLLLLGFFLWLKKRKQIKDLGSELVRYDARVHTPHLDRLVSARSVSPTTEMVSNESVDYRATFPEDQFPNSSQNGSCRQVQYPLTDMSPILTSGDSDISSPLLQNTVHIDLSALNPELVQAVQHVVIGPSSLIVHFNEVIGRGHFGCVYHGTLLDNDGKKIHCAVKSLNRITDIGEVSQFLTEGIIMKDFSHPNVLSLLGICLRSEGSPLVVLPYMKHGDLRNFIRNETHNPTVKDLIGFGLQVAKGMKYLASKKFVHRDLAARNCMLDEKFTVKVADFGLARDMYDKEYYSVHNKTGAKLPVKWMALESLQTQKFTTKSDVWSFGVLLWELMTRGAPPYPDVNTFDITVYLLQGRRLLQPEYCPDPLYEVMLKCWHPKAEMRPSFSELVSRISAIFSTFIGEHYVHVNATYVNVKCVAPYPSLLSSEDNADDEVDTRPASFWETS

aqueous solubility (Aqueous solubility) | IC50 (c-Met) [nM] | anti-proliferative IC50 (PC3-PIP PSMA (+) cells) [µg/mL] | Compound | PSMA affinity (PSMA)
 |  |  | O=C(O)CC[C@H](NP(=O)(O)OCCC[C@H](NC(=O)CC[C@H](NC(=O)CCCCCNC(=O)c1ccc(F)cc1)C(=O)O)C(=O)O)C(=O)O [CTT 1057] | nanomolar affinity
poor aqueous solubility |  |  | COc1cc2nccc(Oc3ccc(NC(=O)C4(C(=O)Nc5ccc(F)cc5)CC4)cc3)c2cc1OC [Cabo, cabozantinib, reference compound] | 
poor aqueous solubility | 26.3 | 77.30 ± 4.35 | COc1cc2c(Oc3ccc(NC(=O)C4(C(=O)Nc5ccc(F)cc5)CC4)cc3)ccnc2cc1O [Cabo-OH] | 

From PMC12716163 (Nanoscale, 2024)
